From US8445689B2, “Pesticides” (Dow AgroSciences, LLC., priority 2008, dated 2013)

System: Green Peach Aphid (Myzus persicae)
Assay: Insecticidal test for green peach aphid in foliar spray assay on cabbage
Type: in vivo
Conditions: 72 h, 200 ppm foliar spray on cabbage seedlings, graded after 3 d, corrected % control (Abbott), read-out: Rating against green peach aphid on cabbage (foliar spray)
Method: Compounds 1-67 were tested against green peach aphid using procedures described hereinafter.
Insecticidal Test for Green Peach Aphid (Myzus persicae) in Foliar Spray Assay
Cabbage seedlings grown in 3-inch pots, with 2-3 small (3-5 cm) true leaves, were used as test substrate. The seedlings were infested with 20-50 green peach aphids (wingless adult and nymph) 1-2 d prior to chemical application. Four seedlings were used for each treatment. Compounds (2 mg) were dissolved in 2 mL of acetone-methanol (1:1) solvent, forming stock solutions of 1000 ppm. The stock solutions were diluted 5× with 0.025% Tween 20 in H2O to obtain a solution at 200 ppm. A hand-held Devilbiss aspirator sprayer was used for spraying a solution to both sides of cabbage leaves until runoff. Reference plants (solvent check) were sprayed with the diluent only. Treated plants were held in a holding room for 3 d at approximately 23° C. and 40% RH prior to grading. Evaluation was conducted by counting the number of live aphids per plant under a microscope. Insecticidal activity was measured by using Abbott's correction formula: Corrected % Control=100*(X−Y)/X • where X=No. of live aphids on solvent check plants • Y=No. of live aphids on treated plants
In the case of `CC(c1ccc(C(F)(F)F)nc1)S(C)(=O)=NC(=O)NC(=O)CCl` (centres unmarked) [Compound 3, N-(chloroacetyl)-N′-(methyl(oxido){1-[6-(trifluoromethyl)pyridin-3-yl]ethyl}-λ^4-sulfanylidene)urea], the pest or weed control at 200 ppm is reported as 80 to 100%.
With `CC(c1ccc(C(F)(F)F)nc1)S(C)(=O)=NC(=S)Nc1cccnc1` (centres unmarked) [Compound 4, N-(methyl(oxido){1-[6-(trifluoromethyl)pyridin-3-yl]ethyl}-λ^4-sulfanylidene)-N′-pyridin-3-ylthiourea] the pest or weed control at 200 ppm was less than 80%.
With `COc1ccc(NC(=S)N=S(C)(=O)C(C)c2ccc(C(F)(F)F)nc2)cc1` (centres unmarked) [Compound 5] the pest or weed control at 200 ppm was less than 80%.
For `CCNC(=S)N=S(C)(=O)C(C)c1ccc(C(F)(F)F)nc1` (centres unmarked) [Compound 6], the pest or weed control at 200 ppm was 80 to 100%.
Work on `CC(c1ccc(C(F)(F)F)nc1)S(C)(=O)=NC(=S)NC1CCCCC1` (centres unmarked) [Compound 7] yielded a pest or weed control at 200 ppm of 80 to 100%.
`CC(c1ccc(C(F)(F)F)nc1)S(C)(=O)=NC(=S)NCc1ccco1` (centres unmarked) [Compound 8] showed a pest or weed control at 200 ppm of 80 to 100%.
In the case of `COC(=O)C(C)NC(=S)N=S(C)(=O)C(C)c1ccc(C(F)(F)F)nc1` (centres unmarked) [Compound 10], the pest or weed control at 200 ppm is reported as 80 to 100%.
For `CC(c1ccc(C(F)(F)F)nc1)S(C)(=O)=NC(=S)NCCN1CCOCC1` (centres unmarked) [Compound 11], the pest or weed control at 200 ppm was 80 to 100%.
For `CCOC(=O)CNC(=S)N=S(C)(=O)C(C)c1ccc(C(F)(F)F)nc1` (centres unmarked) [Compound 12], the pest or weed control at 200 ppm was 80 to 100%.
For `CNC(=S)N=S(C)(=O)C(C)c1ccc(C(F)(F)F)nc1` (centres unmarked) [Compound 13], the pest or weed control at 200 ppm was 80 to 100%.
With `CC(C)NC(=S)N=S(C)(=O)C(C)c1ccc(C(F)(F)F)nc1` (centres unmarked) [Compound 14] the pest or weed control at 200 ppm was 80 to 100%.
Compound `CC(c1ccc(C(F)(F)F)nc1)S(C)(=O)=NC(=S)NC1CC1` (centres unmarked) [Compound 15] has a pest or weed control at 200 ppm of 80 to 100%.
`CC(c1ccc(C(F)(F)F)nc1)S(C)(=O)=NC(=S)NC(=O)c1ccc(Cl)cc1` (centres unmarked) [Compound 16] showed a pest or weed control at 200 ppm of 80 to 100%.
`COc1ccc(C(=O)NC(=S)N=S(C)(=O)C(C)c2ccc(C(F)(F)F)nc2)cc1` (centres unmarked) [Compound 17] showed a pest or weed control at 200 ppm of 80 to 100%.
For `CC(c1ccc(C(F)(F)F)nc1)S(C)(=O)=NC(=S)NC(=O)c1ccco1` (centres unmarked) [Compound 18], the pest or weed control at 200 ppm was 80 to 100%.
In the case of `CC(c1ccc(C(F)(F)F)nc1)S(C)(=O)=NC(=S)N(C)C` (centres unmarked) [Compound 23, N,N-dimethyl-N′-(methyl(oxido){1-[6-(trifluoromethyl)pyridin-3-yl]ethyl}-λ^4-sulfanylidene)thiourea], the pest or weed control at 200 ppm is reported as 80 to 100%.
Work on `CCN(CC)C(=S)N=S(C)(=O)C(C)c1ccc(C(F)(F)F)nc1` (centres unmarked) [Compound 24] yielded a pest or weed control at 200 ppm of 80 to 100%.
In the case of `CC(c1ccc(C(F)(F)F)nc1)S(C)(=O)=NC(=S)N1CCCC1` (centres unmarked) [Compound 25], the pest or weed control at 200 ppm is reported as 80 to 100%.
In the case of `CC(c1ccc(C(F)(F)F)nc1)S(C)(=O)=NC(=S)N1CCCCC1` (centres unmarked) [Compound 26], the pest or weed control at 200 ppm is reported as 80 to 100%.
Compound `CC(c1ccc(C(F)(F)F)nc1)S(C)(=O)=NC(=S)N1CCOCC1` (centres unmarked) [Compound 27] has a pest or weed control at 200 ppm of 80 to 100%.
With `CS(=O)(Cc1ccc(C(F)(F)F)nc1)=NC(N)=S` (centres unmarked) [Compound 29, N-(methyl(oxido){[6-(trifluoromethyl)pyridin-3-yl]methyl}-λ^4-sulfanylidene)thiourea] the pest or weed control at 200 ppm was 80 to 100%.
With `CS(=O)(=N/C(N)=N/O)C(CC1CC1)c1ccc(Cl)nc1` (centres unmarked) [Compound 40, N-[[1-(6-chloropyridin-3-yl)-2-cyclopropylethyl](methyl)oxido-λ^4-sulfanylidene]-N″-hydroxyguanidine] the pest or weed control at 200 ppm was less than 80%.
For `CS(=O)(=N/C(N)=N/O)C(C/C=C/Cl)c1ccc(Cl)nc1` (centres unmarked) [Compound 41, N-[[(3E)-4-Chloro-1-(6-chloropyridin-3-yl)but-3-enyl](methyl)oxido-λ^4-sulfanylidene]-N″-hydroxyguanidine], the pest or weed control at 200 ppm was less than 80%.
For `CS(=O)(Cc1ccc(C(F)(F)F)nc1)=N/C(N)=N/O` (centres unmarked) [Compound 42, N′-hydroxy-N-(methyl(oxido){[6-(trifluoromethyl)pyridin-3-yl]methyl}-λ^4-sulfanylidene)guanidine], the pest or weed control at 200 ppm was 80 to 100%.
With `CS(=O)(=N/C(N)=N/O)C(CC1CC1)c1ccc(C(F)(F)F)nc1` (centres unmarked) [Compound 43, N-[{2-cyclopropyl-1-[6-(trifluoromethyl)pyridin-3-yl]ethyl}(methyl)oxido-λ^4-sulfanylidene]-N″-hydroxyguanidine] the pest or weed control at 200 ppm was 80 to 100%.
Work on `CC(=O)O/N=C(\N)N=S(C)(=O)C(C)c1ccc(C(F)(F)F)nc1` (centres unmarked) [Compound 44, N″-(acetyloxy)-N-(methyl(oxido){1-[6-(trifluoromethyl)pyridin-3-yl]ethyl}-λ^4-sulfanylidene)guanidine] yielded a pest or weed control at 200 ppm of 80 to 100%.
In the case of `CC(c1ccc(C(F)(F)F)nc1)S(C)(=O)=NC(=N)N` (centres unmarked) [Compound 45, N-(methyl(oxido){1-[6-(trifluoromethyl)pyridin-3-yl]ethyl}-λ^4-sulfanylidene)guanidine], the pest or weed control at 200 ppm is reported as less than 80%.
With `CC(c1ccc(C(F)(F)F)nc1)S(C)(=O)=N/C(N)=N/OCc1ccc(Cl)cc1` (centres unmarked) [Compound 46, N′-[(4-chlorobenzyl)oxy]-N-(methyl(oxido) {1-[6-(trifluoromethyl)pyridin-3-yl]ethyl}-λ^4-sulfanylidene)guanidine] the pest or weed control at 200 ppm was 80 to 100%.
`COc1ccc(CO/N=C(\N)N=S(C)(=O)C(C)c2ccc(C(F)(F)F)nc2)cc1` (centres unmarked) [Compound 47] gave a pest or weed control at 200 ppm of 80 to 100%.
Work on `CO/N=C(\N)N=S(C)(=O)C(C)c1ccc(C(F)(F)F)nc1` (centres unmarked) [Compound 48] yielded a pest or weed control at 200 ppm of 80 to 100%.
`CCO/N=C(\N)N=S(C)(=O)C(C)c1ccc(C(F)(F)F)nc1` (centres unmarked) [Compound 49] showed a pest or weed control at 200 ppm of 80 to 100%.
In the case of `CC(C)O/N=C(\N)N=S(C)(=O)C(C)c1ccc(C(F)(F)F)nc1` (centres unmarked) [Compound 50], the pest or weed control at 200 ppm is reported as 80 to 100%.
With `CC(c1ccc(C(F)(F)F)nc1)S(C)(=O)=N/C(N)=N/OCC1CC1` (centres unmarked) [Compound 51] the pest or weed control at 200 ppm was 80 to 100%.
Work on `CC(c1ccc(C(F)(F)F)nc1)S(C)(=O)=N/C(N)=N/OCC1CC1(F)F` (centres unmarked) [Compound 52] yielded a pest or weed control at 200 ppm of 80 to 100%.
Compound `C=CCO/N=C(\N)N=S(C)(=O)C(C)c1ccc(C(F)(F)F)nc1` (centres unmarked) [Compound 53] has a pest or weed control at 200 ppm of 80 to 100%.
Compound `CC(c1ccc(C(F)(F)F)nc1)S(C)(=O)=N/C(N)=N/OCCCF` (centres unmarked) [Compound 54] has a pest or weed control at 200 ppm of 80 to 100%.
`CC(c1ccc(C(F)(F)F)nc1)S(C)(=O)=N/C(N)=N/OCCCCF` (centres unmarked) [Compound 55] gave a pest or weed control at 200 ppm of 80 to 100%.
With `CC(c1ccc(C(F)(F)F)nc1)S(C)(=O)=N/C(N)=N/OCCC=C(F)F` (centres unmarked) [Compound 56] the pest or weed control at 200 ppm was 80 to 100%.
`CC(c1ccc(C(F)(F)F)nc1)S(C)(=O)=N/C(=N/OCc1ccc(Cl)cc1)NCc1ccc(Cl)cc1` (centres unmarked) [Compound 57] showed a pest or weed control at 200 ppm of less than 80%.
With `COc1ccc(CN/C(N=S(C)(=O)C(C)c2ccc(C(F)(F)F)nc2)=N\OCc2ccc(OC)cc2)cc1` (centres unmarked) [Compound 58] the pest or weed control at 200 ppm was 80 to 100%.
For `CC(c1ccc(C(F)(F)F)nc1)S(C)(=O)=N/C(N)=N/OCCF` (centres unmarked) [Compound 59], the pest or weed control at 200 ppm was 80 to 100%.
Compound `COCCO/N=C(\N)N=S(C)(=O)C(C)c1ccc(C(F)(F)F)nc1` (centres unmarked) [Compound 60] has a pest or weed control at 200 ppm of 80 to 100%.
`CC(c1ccc(C(F)(F)F)nc1)S(C)(=O)=N/C(N)=N/OCC1CO1` (centres unmarked) [Compound 61] gave a pest or weed control at 200 ppm of 80 to 100%.
For `CN/C(N=S(C)(=O)C(C)c1ccc(C(F)(F)F)nc1)=N\OC` (centres unmarked) [Compound 63, N″-methoxy-N-methyl-N′-(methyl(oxido){1-[6-(trifluoromethyl)pyridin-3-yl]ethyl}-λ^4-sulfanylidene)guanidine], the pest or weed control at 200 ppm was 80 to 100%.
Compound `CC(C)O/N=C(\N)N=S(C)(=O)C(C/C=C/Cl)c1ccc(Cl)nc1` (centres unmarked) [Compound 64, N-[[(3E)-4-Chloro-1-(6-chloropyridin-3-yl)but-3-enyl](methyl)oxido-λ^4-sulfanylidene]-N″-isopropoxyguanidine] has a pest or weed control at 200 ppm of less than 80%.
`CC(c1ccc(C(F)(F)F)nc1)S(C)(=O)=NC(=O)C(F)F` (centres unmarked) [Compound 66, 2,2-difluoro-N-(methyl(oxido){1-[6-(trifluoromethyl)pyridin-3-yl]ethyl}-λ^4-sulfanylidene)acetamide] gave a pest or weed control at 200 ppm of 80 to 100%.
Compound `CC(c1ccc(C(F)(F)F)nc1)S(C)(=O)=NC(=O)C(C)(C)C` (centres unmarked) [Compound 67, 2,2-dimethyl-N-(methyl(oxido){1-[6-(trifluoromethyl)pyridin-3-yl]ethyl}-λ^4-sulfanylidene)propanamide] has a pest or weed control at 200 ppm of less than 80%.

Same assay, conditions: foliar, 72 h, read-out: Rating against green peach aphid on cabbage (foliar spray)
In the case of `CC(c1ccc(C(F)(F)F)nc1)S(C)(=O)=NC(=S)NC(=O)OCC1c2ccccc2-c2ccccc21` (centres unmarked) [Compound 9], the pest or weed control at 200 ppm is reported as 80 to 100%.
In the case of `CCOC(=O)NC(=S)N=S(C)(=O)C(C)c1ccc(C(F)(F)F)nc1` (centres unmarked) [Compound 19], the pest or weed control at 200 ppm is reported as 80 to 100%.
`Cc1ccc(C(C)S(C)(=O)=NC(=S)NC(=O)OCC2c3ccccc3-c3ccccc32)cn1` (centres unmarked) [Compound 32, 9H-fluoren-9-ylmethyl({methyl[1-(6-methylpyridin-3-yl)ethyl]oxido-λ^4-sulfanylidene}amino)carbonothioylcarbamate] showed a pest or weed control at 200 ppm of less than 80%.

System: not given
Assay: not given
Conditions: not given
`CS(=O)(=NC(=O)Nc1ccc(C(F)(F)F)cc1)c1ccc(Cl)cc1` (centres unmarked) [Compound 1, N-[(4-chlorophenyl)(methyl)oxido-λ^4-sulfanylidene]-N′-[4-(trifluoromethyl)phenyl]urea] showed a melting point of 131 to 134 °C.
Work on `COc1ccc(NC(=S)N=S(C)(=O)C(C)c2ccc(C(F)(F)F)nc2)cc1` (centres unmarked) [Compound 5] yielded a melting point of 167 to 169 °C.
For `CC(c1ccc(C(F)(F)F)nc1)S(C)(=O)=NC(=S)NC1CCCCC1` (centres unmarked) [Compound 7], the melting point was 170 to 172 °C.
For `CC(c1ccc(C(F)(F)F)nc1)S(C)(=O)=NC(=S)NC(=O)OCC1c2ccccc2-c2ccccc21` (centres unmarked) [Compound 9], the melting point was 105 to 107 °C.
`CC(C)NC(=S)N=S(C)(=O)C(C)c1ccc(C(F)(F)F)nc1` (centres unmarked) [Compound 14] gave a melting point of 153 to 155 °C.
Compound `CC(c1ccc(C(F)(F)F)nc1)S(C)(=O)=NC(=S)NC1CC1` (centres unmarked) [Compound 15] has a melting point of 154 to 156 °C.
